# Measured values taken from PMC2234497 (The Journal of General Physiology, 2004).
# How the values were obtained:
# [1] = target: T1, homomeric (CNGA1) rod CNG channels (Bos taurus, UniProt Q00194); details: cited from earlier work
# T1 sequence (Q00194 1-690): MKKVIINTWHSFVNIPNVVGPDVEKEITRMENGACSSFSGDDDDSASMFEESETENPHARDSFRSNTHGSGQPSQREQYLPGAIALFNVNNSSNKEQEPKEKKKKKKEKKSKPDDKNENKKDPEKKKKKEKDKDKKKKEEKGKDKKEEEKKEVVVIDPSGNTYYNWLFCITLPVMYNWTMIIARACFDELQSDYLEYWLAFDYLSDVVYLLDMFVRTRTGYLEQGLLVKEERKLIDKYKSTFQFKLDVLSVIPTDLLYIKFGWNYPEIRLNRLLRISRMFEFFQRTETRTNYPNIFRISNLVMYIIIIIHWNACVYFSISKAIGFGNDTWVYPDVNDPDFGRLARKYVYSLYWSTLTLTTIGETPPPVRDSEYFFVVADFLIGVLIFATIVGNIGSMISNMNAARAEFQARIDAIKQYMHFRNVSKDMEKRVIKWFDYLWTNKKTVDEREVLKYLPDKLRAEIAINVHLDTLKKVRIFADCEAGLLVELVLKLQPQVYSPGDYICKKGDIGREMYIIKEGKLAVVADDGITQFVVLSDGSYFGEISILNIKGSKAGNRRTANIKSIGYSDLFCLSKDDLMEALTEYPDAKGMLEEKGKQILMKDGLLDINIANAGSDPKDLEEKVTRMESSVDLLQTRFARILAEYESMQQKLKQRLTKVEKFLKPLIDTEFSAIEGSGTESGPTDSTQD
# [2] = target: heteromeric (CNGA1 + CNGB1) rod CNG channels (Bos taurus, UniProt Q00194+Q28181); details: ref Chen et al., 1993; cited from earlier work
# [3] = target: T1, homomeric (CNGA1) rod CNG channels; format: cell-based, bovine
# [4] = model fit of cGMP dose–response without ATR
# Chain of heteromeric (CNGA1 + CNGB1) rod CNG channels (Q28181 whole entry, one chain of several): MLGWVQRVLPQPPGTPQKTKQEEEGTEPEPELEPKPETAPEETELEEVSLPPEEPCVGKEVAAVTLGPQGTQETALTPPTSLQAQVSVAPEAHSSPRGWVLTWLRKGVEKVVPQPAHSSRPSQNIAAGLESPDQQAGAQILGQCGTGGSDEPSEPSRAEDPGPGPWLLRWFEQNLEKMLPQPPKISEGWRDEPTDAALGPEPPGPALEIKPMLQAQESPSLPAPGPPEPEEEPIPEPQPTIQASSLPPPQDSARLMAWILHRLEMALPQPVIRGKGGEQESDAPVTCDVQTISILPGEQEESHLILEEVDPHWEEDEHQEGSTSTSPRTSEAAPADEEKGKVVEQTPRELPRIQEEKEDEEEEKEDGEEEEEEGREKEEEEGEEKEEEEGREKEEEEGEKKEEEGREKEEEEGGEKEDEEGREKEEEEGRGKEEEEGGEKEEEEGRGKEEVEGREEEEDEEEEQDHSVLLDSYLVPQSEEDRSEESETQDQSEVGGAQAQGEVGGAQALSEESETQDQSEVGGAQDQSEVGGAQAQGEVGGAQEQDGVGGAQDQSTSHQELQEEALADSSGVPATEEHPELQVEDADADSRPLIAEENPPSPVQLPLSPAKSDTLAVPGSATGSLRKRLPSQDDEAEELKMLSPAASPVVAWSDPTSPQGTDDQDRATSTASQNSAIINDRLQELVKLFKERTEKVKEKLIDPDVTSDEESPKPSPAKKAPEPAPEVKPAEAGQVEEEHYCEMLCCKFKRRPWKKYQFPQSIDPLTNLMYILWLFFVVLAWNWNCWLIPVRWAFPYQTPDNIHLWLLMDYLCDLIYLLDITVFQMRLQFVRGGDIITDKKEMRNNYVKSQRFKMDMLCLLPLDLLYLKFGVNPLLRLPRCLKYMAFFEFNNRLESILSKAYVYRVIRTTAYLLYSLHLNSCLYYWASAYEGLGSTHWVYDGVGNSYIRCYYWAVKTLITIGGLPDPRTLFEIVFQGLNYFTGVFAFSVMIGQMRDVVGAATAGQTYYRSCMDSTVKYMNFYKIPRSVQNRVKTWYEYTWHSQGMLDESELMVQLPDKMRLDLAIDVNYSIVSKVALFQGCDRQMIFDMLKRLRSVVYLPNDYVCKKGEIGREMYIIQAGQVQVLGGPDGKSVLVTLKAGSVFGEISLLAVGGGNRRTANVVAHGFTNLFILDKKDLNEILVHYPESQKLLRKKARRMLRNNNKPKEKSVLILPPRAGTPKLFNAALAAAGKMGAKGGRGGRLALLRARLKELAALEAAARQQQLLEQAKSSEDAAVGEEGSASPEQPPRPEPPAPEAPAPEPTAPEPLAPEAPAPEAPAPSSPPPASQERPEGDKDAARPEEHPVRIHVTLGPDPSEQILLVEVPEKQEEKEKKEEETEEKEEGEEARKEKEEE
smiles,measurement,setting,value
COc1ccc([C@H]2Sc3ccccc3N(CCN(C)C)C(=O)[C@H]2OC(C)=O)cc1 (relative stereo) [l-cis-diltiazem],effect on homomeric channels,"[1]; ref Chen et al., 1993",little effect
same,block of heteromeric channels,[2],sensitively blocks
CC1=C(/C=C/C(C)=C/C=C/C(C)=C/CO)C(C)(C)CCC1 [all-trans-retinol],inhibition of the rod CNG channel,"[1]; ref Dean et al., 2002",inhibited quite well
Nc1nc2c(ncn2[C@@H]2O[C@@H]3COP(=O)(O)O[C@H]3[C@H]2O)c(=O)[nH]1 [cGMP],open probability predicted by KcN and L,"[3]; 2 mM cGMP, no ATR",0.95
same,"KcN, association constant for cyclic nucleotide binding",[3]; [4],"7,200 M^−1"
same,"L, equilibrium constant for the allosteric opening transition of the fully liganded channel",[3]; [4],19.8
